Measurements published in ChEMBL document CHEMBL1909046, “DrugMatrix in vitro pharmacology data”.

What was measured:
[1] = target: Mu-type opioid receptor (Homo sapiens, UniProt P35372); test: DRUGMATRIX: Opiate mu (OP3, MOP) radioligand binding (ligand: [3H] Diprenorphine); format: cell membranes, CHO-K1, Membrane; settings: cho-k1; Not Active = under 50% inhibition at 10 µM
[2] = target: Receptor tyrosine-protein kinase erbB-2 (Homo sapiens, UniProt P04626); format: cell-based; settings: insect cells;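 further: inhibition of HER2 kinase enzyme activity, measured with Poly(Glu:Tyr) as the phosphorylation substrate; in other assays of this panel Not Active means under 50% inhibition at 10 µM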
[3] = target: Cytochrome P450 2C19 (Homo sapiens, UniProt P33261); settings: bti-tn-5b1-4; further: in other assays of this panel Not Active means under 50% inhibition at 10 µM
[4] = target: T1, 5-hydroxytryptamine receptor 1A (Rattus norvegicus, UniProt P19327); format: cell membranes, CHO-K1, Membrane; further: in other assays of this panel Not Active means under 50% inhibition at 10 µM
T1 sequence (P19327 whole entry): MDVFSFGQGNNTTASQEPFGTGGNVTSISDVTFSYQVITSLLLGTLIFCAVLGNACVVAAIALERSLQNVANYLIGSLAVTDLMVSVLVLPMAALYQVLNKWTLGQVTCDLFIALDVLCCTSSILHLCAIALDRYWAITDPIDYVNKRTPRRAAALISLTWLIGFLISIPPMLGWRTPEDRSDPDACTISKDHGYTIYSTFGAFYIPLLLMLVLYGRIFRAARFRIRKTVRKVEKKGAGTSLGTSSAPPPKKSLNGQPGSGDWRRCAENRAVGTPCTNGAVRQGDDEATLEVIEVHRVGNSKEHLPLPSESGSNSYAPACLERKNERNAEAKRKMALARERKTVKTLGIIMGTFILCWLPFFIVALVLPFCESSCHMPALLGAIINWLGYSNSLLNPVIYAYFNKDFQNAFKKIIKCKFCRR

[5] = DRUGMATRIX: Glutamate, Kainate radioligand binding (ligand: [3H] Kainic acid); format: cell membranes, Rattus norvegicus, Wistar, Brain, Membrane; settings: Not Active = under 50% inhibition at 10 µM
[6] = target: D(3) dopamine receptor (Homo sapiens, UniProt P35462); test: DRUGMATRIX: Dopamine D3 radioligand binding (ligand: [3H] Spiperone); format: cell membranes, CHO, Membrane
[7] = target: T2, Estrogen receptor (Homo sapiens, UniProt P03372); settings: sf9; further: in other assays of this panel Not Active means under 50% inhibition at 10 µM
T2 sequence (P03372 whole entry): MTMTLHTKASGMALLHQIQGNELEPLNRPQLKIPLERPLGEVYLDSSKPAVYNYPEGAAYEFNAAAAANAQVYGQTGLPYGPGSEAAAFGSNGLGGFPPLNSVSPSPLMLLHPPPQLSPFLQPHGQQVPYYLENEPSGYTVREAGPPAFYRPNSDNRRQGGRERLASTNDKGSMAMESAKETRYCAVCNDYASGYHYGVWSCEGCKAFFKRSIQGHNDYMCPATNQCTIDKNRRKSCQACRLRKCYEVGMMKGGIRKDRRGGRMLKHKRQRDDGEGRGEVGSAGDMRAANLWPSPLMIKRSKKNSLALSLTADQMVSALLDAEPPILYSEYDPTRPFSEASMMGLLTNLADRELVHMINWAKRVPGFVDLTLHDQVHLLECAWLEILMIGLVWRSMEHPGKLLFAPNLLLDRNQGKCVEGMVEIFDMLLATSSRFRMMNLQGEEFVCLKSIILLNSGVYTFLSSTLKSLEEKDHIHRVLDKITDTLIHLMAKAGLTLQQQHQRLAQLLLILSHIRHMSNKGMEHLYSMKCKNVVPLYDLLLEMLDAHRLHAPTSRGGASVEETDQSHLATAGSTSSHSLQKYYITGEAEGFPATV

Cytochrome P450 2C19, sequence (P33261 whole entry): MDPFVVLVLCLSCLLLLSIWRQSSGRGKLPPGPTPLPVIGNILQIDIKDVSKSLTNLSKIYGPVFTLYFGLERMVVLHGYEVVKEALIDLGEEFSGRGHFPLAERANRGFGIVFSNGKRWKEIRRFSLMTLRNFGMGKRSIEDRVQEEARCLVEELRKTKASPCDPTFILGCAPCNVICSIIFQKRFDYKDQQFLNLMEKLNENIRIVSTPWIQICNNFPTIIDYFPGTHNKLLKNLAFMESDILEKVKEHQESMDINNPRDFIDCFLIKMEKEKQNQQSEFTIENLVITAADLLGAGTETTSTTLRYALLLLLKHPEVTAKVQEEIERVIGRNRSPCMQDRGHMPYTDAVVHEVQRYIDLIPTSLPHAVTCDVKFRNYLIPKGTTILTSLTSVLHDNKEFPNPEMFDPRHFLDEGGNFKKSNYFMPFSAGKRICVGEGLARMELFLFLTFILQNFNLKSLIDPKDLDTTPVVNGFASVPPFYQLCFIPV
Mu-type opioid receptor, sequence (P35372 whole entry): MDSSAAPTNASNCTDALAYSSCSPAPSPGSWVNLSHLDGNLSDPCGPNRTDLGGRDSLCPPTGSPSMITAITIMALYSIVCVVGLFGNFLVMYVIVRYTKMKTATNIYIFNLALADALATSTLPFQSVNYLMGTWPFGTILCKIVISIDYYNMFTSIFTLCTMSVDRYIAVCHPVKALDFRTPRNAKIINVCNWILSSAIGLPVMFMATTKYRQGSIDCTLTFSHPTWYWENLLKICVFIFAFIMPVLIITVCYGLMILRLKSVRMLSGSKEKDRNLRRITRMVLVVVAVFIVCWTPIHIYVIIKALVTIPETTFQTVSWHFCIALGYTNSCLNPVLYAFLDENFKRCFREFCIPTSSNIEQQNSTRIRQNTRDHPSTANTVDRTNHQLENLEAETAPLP
D(3) dopamine receptor, sequence (P35462 whole entry): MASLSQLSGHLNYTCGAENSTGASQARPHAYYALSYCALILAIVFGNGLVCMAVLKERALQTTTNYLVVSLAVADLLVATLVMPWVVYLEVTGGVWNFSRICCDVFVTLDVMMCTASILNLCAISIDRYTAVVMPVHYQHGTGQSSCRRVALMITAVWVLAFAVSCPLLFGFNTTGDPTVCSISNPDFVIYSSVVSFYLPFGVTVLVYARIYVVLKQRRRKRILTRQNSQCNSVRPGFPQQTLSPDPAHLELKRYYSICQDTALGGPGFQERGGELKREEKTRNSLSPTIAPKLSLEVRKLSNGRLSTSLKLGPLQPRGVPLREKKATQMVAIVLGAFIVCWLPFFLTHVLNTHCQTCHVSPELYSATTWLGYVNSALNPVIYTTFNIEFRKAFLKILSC

| Molecule | IC50 [1] | IC50 [2] | IC50 [3] | Ki [3] | IC50 ([4]; cho-k1) | IC50 [5] | Ki [5] | IC50 ([6]; cho) | IC50 [7] | IC50 ([4]; read-out: IC50) | Ki ([4]; read-out: Ki) | IC50 ([6]; read-out: IC50) | Ki ([6]; read-out: Ki) | Ki [2] | Ki ([4]; cho-k1) | Ki [7] | Ki ([6]; cho) |
| --- | --- | --- | --- | --- | --- | --- | --- | --- | --- | --- | --- | --- | --- | --- | --- | --- | --- |
| CS(=O)(=O)c1ccc(C2=C(c3ccccc3)C(=O)OC2)cc1 [ROFECOXIB] | Not Active | Not Active | Not Active | Not Active | Not Active | Not Active | Not Active | Not Active |  |  |  |  |  |  |  |  |  |
| CCOc1cc(N)c(Cl)cc1C(=O)NCC1CN(Cc2ccc(F)cc2)CCO1 (stereo not drawn) [MOSAPRIDE] | Not Active | Not Active |  |  | Not Active | Not Active | Not Active | Not Active | Not Active |  |  |  |  |  |  |  |  |
| Oc1ccc(/C=C/c2cc(O)cc(O)c2)cc1 [RESVERATROL] |  | Not Active |  |  | Not Active | Not Active | Not Active | Not Active | Not Active |  |  |  |  |  |  |  |  |
| C=CCc1ccc2c(c1)OCO2 [SAFROLE] | Not Active | Not Active | Not Active | Not Active | Not Active | Not Active | Not Active | Not Active |  |  |  |  |  |  |  |  |  |
| CCN(CC)N=O [N-NITROSODIETHYLAMINE] |  | Not Active | Not Active | Not Active | Not Active | Not Active | Not Active | Not Active |  |  |  |  |  |  |  |  |  |
| CCN1CCCC1CNC(=O)c1cc(S(N)(=O)=O)ccc1OC (stereo not drawn) [SULPIRIDE] | Not Active | Not Active | Not Active | Not Active | Not Active | Not Active | Not Active |  |  |  |  |  |  |  |  |  |  |
| O=C1CC[C@@]2(O)[C@H]3Cc4ccc(O)c5c4[C@@]2(CCN3CC2CC2)[C@H]1O5 [NALTREXONE] |  | Not Active | Not Active | Not Active | Not Active | Not Active | Not Active | Not Active |  |  |  |  |  |  |  |  |  |
| O=C(OC[C@H]1O[C@@H](OC(=O)c2cc(O)c(O)c(OC(=O)c3cc(O)c(O)c(O)c3)c2)[C@H](OC(=O)c2cc(O)c(O)c(OC(=O)c3cc(O)c(O)c(O)c3)c2)[C@@H](OC(=O)c2cc(O)c(O)c(OC(=O)c3cc(O)c(O)c(O)c3)c2)[C@@H]1OC(=O)c1cc(O)c(O)c(OC(=O)c2cc(O)c(O)c(O)c2)c1)c1cc(O)c(O)c(OC(=O)c2cc(O)c(O)c(O)c2)c1 [TANNIC ACID] | Not Active | Not Active | Not Active | Not Active | Not Active | Not Active | Not Active | Not Active |  |  |  |  |  |  |  |  |  |
| Cc1cn([C@H]2C=C[C@@H](CO)O2)c(=O)[nH]c1=O [STAVUDINE] | Not Active | Not Active | Not Active | Not Active | Not Active | Not Active | Not Active | Not Active |  |  |  |  |  |  |  |  |  |
| CN1C[C@H](CNC(=O)OCc2ccccc2)C[C@@H]2c3cccc4c3c(cn4C)C[C@H]21 [METERGOLINE] | Not Active | Not Active |  |  |  | Not Active | Not Active |  | Not Active | 0.00617 µM | 0.00353 µM |  |  |  |  |  |  |
| Cc1cc2c(s1)Nc1ccccc1N=C2N1CCN(C)CC1 [OLANZAPINE] | Not Active | Not Active | Not Active | Not Active | Not Active |  |  |  | Not Active |  |  |  |  |  |  |  |  |
| Cc1ccc(S(=O)(=O)NC(=O)NN2CCCCCC2)cc1 [TOLAZAMIDE] | Not Active | Not Active |  |  | Not Active | Not Active | Not Active | Not Active | Not Active |  |  |  |  |  |  |  |  |
| CCC(C)(C)C(=O)O[C@H]1C[C@@H](C)C=C2C=C[C@H](C)[C@H](CC[C@@H]3C[C@@H](O)CC(=O)O3)[C@H]21 [SIMVASTATIN] | Not Active | Not Active |  |  | Not Active | Not Active | Not Active | Not Active | Not Active |  |  |  |  |  |  |  |  |
| CN(C)CCC=C1c2ccccc2COc2ccccc21 [DOXEPIN] | Not Active | Not Active | Not Active | Not Active |  |  |  |  |  |  |  |  |  |  |  |  |  |
| C#C[C@]1(O)CC[C@H]2[C@@H]3[C@H](C)CC4=C(CCC(=O)C4)[C@H]3CC[C@@]21C [TIBOLONE] | Not Active | Not Active |  |  | Not Active | Not Active | Not Active | Not Active |  |  |  |  |  |  |  |  |  |
| C[C@]12CCC(=O)C[C@@H]1CC[C@@H]1[C@@H]2CC[C@]2(C)[C@@H](O)CC[C@@H]12 [STANOLONE] | Not Active | Not Active | Not Active | Not Active | Not Active | Not Active | Not Active | Not Active |  |  |  |  |  |  |  |  |  |
| CO[C@@]12[C@H](COC(N)=O)C3=C(C(=O)C(C)=C(N)C3=O)N1C[C@@H]1N[C@@H]12 [MITOMYCIN] | Not Active | Not Active | Not Active | Not Active | Not Active | Not Active | Not Active | Not Active |  |  |  |  |  |  |  |  |  |
| Cc1[nH]c(=O)c(C#N)cc1-c1ccncc1 [MILRINONE] | Not Active | Not Active |  |  | Not Active | Not Active | Not Active | Not Active | Not Active |  |  |  |  |  |  |  |  |
| CC(Cl)(Cl)Cl [TRICHLOROETHANE] |  | Not Active | Not Active | Not Active | Not Active | Not Active | Not Active | Not Active |  |  |  |  |  |  |  |  |  |
| CC#C[C@]1(O)CC[C@H]2[C@@H]3CCC4=CC(=O)CCC4=C3[C@@H](c3ccc(N(C)C)cc3)C[C@@]21C [MIFEPRISTONE] |  | Not Active | Not Active | Not Active | Not Active | Not Active | Not Active | Not Active |  |  |  |  |  |  |  |  |  |
| O=[As][O-].[Na+] [SODIUM ARSENITE] |  | Not Active | Not Active | Not Active | Not Active | Not Active | Not Active | Not Active | Not Active |  |  |  |  |  |  |  |  |
| CCOC(=O)C1=C(C)NC(C)=C(C(=O)OCC)C1c1ccccc1/C=C/C(=O)OC(C)(C)C [LACIDIPINE] | Not Active | Not Active |  |  | Not Active | Not Active | Not Active |  | Not Active |  |  | 6.17 µM | 2.1 µM |  |  |  |  |
| CNCCCC12CCC(c3ccccc31)c1ccccc12 [MAPROTILINE] | Not Active | Not Active |  |  | Not Active |  |  |  | Not Active |  |  |  |  |  |  |  |  |
| O=C(c1ccccc1)c1ccc2n1CCC2C(=O)O (stereo not drawn) [KETOROLAC] | Not Active | Not Active | Not Active | Not Active | Not Active | Not Active | Not Active | Not Active |  |  |  |  |  |  |  |  |  |
| O=C(O)c1cc(/N=N/c2ccc(S(=O)(=O)Nc3ccccn3)cc2)ccc1O [SULFASALAZINE] | Not Active | Not Active | Not Active | Not Active | Not Active | Not Active | Not Active | Not Active |  |  |  |  |  |  |  |  |  |
| C1CCN2C[C@@H]3C[C@@H](CN4CCCC[C@@H]34)[C@H]2C1 [SPARTEINE] |  | Not Active |  |  | Not Active | Not Active | Not Active | Not Active |  |  |  |  |  |  |  |  |  |
| LEAD(IV) ACETATE |  | Not Active | Not Active | Not Active | Not Active | Not Active | Not Active | Not Active | Not Active |  |  |  |  | Not Active | Not Active | Not Active | Not Active |
